Compound | melting point [°C]
O=c1[nH]c2ccc(N3CCN(Cc4ccc(-c5ccccc5)cc4)CC3)cc2[nH]1 [6a, 5-(4-(biphenyl-4-ylmethyl)piperazin-1-yl)-1H-benzo[d]imidazol-2(3H)-one] | > 260
O=c1[nH]c2ccc(N3CCN(Cc4cncc(C5=CCCC5)c4)CC3)cc2[nH]1 [6f, 5-(4-((5-cyclopentenylpyridin-3-yl)methyl)piperazin-1-yl)-1H-benzo[d]imidazol-2(3H)-one] | 255 to 256
O=c1[nH]c2ccc(N3CCN(Cc4cncc(-c5ccc(F)cc5)c4)CC3)cc2[nH]1 [6d, 5-(4-((5-(4-fluorophenyl)pyridin-3-yl)methyl)piperazin-1-yl)-1H-benzo[d]imidazol-2(3H)-one] | 246 to 247
O=c1[nH]c2ccc(C3CCN(Cc4cncc(C5=CCCC5)c4)CC3)cc2[nH]1 [5f, 5-(1-((5-cyclopentenylpyridin-3-yl)methyl)piperidin-4-yl)-1H-benzo[d]imidazol-2(3H)-one] | 249 to 250
O=c1[nH]c2ccc(N3CCN(Cc4cccc(C5=CCCC5)c4)CC3)cc2[nH]1 [6e, 5-(4-(3-cyclopentenylbenzyl)piperazin-1-yl)-1H-benzo[d]imidazol-2(3H)-one] | 244 to 245
O=c1[nH]c2ccc(C3CCN(Cc4cncc(-c5ccccc5)c4)CC3)cc2[nH]1 [5c, 5-(1-((5-phenylpyridin-3-yl)methyl)piperidin-4-yl)-1H-benzo[d]imidazol-2(3H)-one] | 236 to 237
O=c1[nH]c2ccc(C3CCN(Cc4ccc(-c5ccccc5)cc4)CC3)cc2[nH]1 [5a, 5-(1-(biphenyl-4-ylmethyl)piperidin-4-yl)-1H-benzo[d]imidazol-2(3H)-one] | > 260
O=c1[nH]c2ccc(N3CCN(CC4(F)C=CC(c5ccccc5)=CC4)CC3)cc2[nH]1 (centres unmarked) [6b, 5-(4-((4-Fluorobiphenyl-4-yl)methyl)piperazin-1-yl)-1H-benzo[d]imidazol-2(3H)-one] | > 260

From US8901304B1, “Benzo[D]imidazole derivatives of piperidine and piperazine” (King Fahd University of Petroleum and Minerals, priority 2013, dated 2014)
